Legend:
CCKB receptor = molecular target: T1, CCKB receptor (Mus musculus, UniProt P56481); assay: CCKB receptor radioligand binding assay in mouse cortical membranes ([125I]-CCK8S); details: [125I]-CCK8S 200 pM, 150 min at 21±3°; for Ki: read-out: CCKB pKi (converted)
T1 construct: The cortex was dissected, weighed and homogenised in 40ml ice-cold buffer; tissue Charles River (supplier of the CD1 mice); host or cells: cerebral cortex membranes of male CD1 mice
T1 sequence (P56481 1-453): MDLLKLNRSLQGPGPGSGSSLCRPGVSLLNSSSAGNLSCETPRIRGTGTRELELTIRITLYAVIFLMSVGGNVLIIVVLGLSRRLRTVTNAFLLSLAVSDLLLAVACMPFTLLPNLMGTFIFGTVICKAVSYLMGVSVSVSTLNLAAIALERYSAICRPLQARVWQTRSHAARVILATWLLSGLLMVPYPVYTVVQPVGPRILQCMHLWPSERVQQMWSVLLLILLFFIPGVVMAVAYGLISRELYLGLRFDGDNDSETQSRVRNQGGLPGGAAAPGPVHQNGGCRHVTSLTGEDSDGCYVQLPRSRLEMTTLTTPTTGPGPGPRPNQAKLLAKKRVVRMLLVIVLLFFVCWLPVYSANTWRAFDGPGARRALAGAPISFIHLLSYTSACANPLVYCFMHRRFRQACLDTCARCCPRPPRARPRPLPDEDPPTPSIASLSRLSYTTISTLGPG
Method in brief: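 Cortical membranes from male CD1 mice in HEPES buffer (pH 7.2; NaCl, KCl, MgCl2, EDTA, bacitracin) were incubated with competing compound and [125I]-CCK8S (added as a 200 pM solution) for 150 min at 21±3°. Non-specific binding was defined with L-365,260. Bound tracer was separated by GF/B filtration and counted by gamma counting.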

CCKA = molecular target: T2, CCKA (Cavia porcellus, UniProt Q63931); assay: CCKA radioligand binding assay in guinea-pig pancreas membranes ([125I]-CCK8(S)); details: PD134,308 present, 150 minutes at 21±3°
T2 construct: The pancreatata were homogenised in 40 ml ice-cold HEPES buffer using a polytron; from tissue; host or cells: pancreas membranes of male Dunkin Hartley guinea-pigs
T2 sequence (Q63931 1-430): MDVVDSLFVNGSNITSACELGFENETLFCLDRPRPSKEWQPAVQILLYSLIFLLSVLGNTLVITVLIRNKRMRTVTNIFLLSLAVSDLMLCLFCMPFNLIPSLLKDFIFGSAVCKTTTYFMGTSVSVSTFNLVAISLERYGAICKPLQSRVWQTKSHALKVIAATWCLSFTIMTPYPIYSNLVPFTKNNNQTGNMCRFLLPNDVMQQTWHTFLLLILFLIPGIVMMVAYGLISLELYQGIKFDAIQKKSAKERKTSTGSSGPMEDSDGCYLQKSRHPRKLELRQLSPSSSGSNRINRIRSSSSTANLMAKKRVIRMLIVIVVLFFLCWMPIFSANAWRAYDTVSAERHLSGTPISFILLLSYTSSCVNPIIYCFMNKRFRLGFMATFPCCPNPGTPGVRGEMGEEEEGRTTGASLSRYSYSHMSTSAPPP
Method in brief: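 Male guinea-pig pancreas membranes (1 mg/ml wet tissue in HEPES pH 7.2, suspension containing 0.375 μM PD134,308) were incubated 150 min at 21±3° with [125I]-CCK8(S) ([…] added solution) and competitor. Non-specific binding used 100 nM L-364,718 (added solution). Bound radioligand was measured by GF/B filtration and gamma counting.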

gastrin = molecular target: T3, gastrin (Rattus norvegicus, UniProt P30553); assay: gastrin antagonist activity in an immature rat stomach assay (pentagastrin-stimulated acid secretion); details: cumulative pentagastrin dose-response curves after 60 min with drug; for Kb: read-out: Gastrin pKB (converted)
T3 construct: The stomach was lowered into a jacketed organ bath containing 40 ml of buffered solution; from tissue; host or cells: isolated perfused whole stomach of immature rats (ca. 21 days old)
T3 sequence (P30553 1-452): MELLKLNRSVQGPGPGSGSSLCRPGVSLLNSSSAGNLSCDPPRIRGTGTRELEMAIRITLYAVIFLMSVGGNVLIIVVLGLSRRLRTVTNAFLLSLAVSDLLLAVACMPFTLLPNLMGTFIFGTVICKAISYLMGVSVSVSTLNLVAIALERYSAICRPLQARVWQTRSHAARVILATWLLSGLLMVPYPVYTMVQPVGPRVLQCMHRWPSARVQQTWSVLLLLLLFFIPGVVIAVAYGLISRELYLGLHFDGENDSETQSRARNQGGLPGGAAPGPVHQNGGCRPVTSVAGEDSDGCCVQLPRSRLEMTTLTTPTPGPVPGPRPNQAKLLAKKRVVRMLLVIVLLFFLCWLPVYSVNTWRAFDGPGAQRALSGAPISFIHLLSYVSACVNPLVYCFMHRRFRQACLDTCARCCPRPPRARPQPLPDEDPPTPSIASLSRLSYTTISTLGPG
Method: The compounds of the examples were also tested for gastrin antagonist activity in an immature rat stomach assay. The procedure was as follows:
The oesophagus of immature rats (33-50 g, ca. 21 days old) was ligated at the level of the cardiac sphincter and the duodenal sphincter was cannulated. The stomach was excised and flushed with ca. 1 ml of unbuffered physiological saline solution. The fundus was punctured and cannulated. A further 4-5 ml of unbuffered solution was flushed through the stomach to ensure the preparation was not leaking. The stomach was lowered into a jacketed organ bath containing 40 ml of buffered solution containing 3×10^-8 M 5-methylfurmethide, maintained at 37° and gassed vigorously with 95% O2 /5% CO2. The stomach was continuously perfused at a rate of 1 ml min^-1 with unbuffered solution gassed with 100% O2 with the perfusate passing over an internally referenced pH-electrode fixed 12 cm above the stomach.
After 120 min of stabilisation the drugs were added directly to the serosal solution in the organ bath and after a further 60 min cumulative pentagastrin dose-response curves were started. Changes in acid secretion were monitored and the curves analysed according to Black et.al., Br. J. Pharmacol., 1985, 86, 581.

Row | Compound | Ki (CCKB receptor) | CCKA pKi (CCKA) | Kb (gastrin) | CCKB pKi (CCKB receptor) | Gastrin pKB (gastrin) | Ki (CCKA; read-out: CCKA pKi (converted))
1 | 5-(1S-(3,5-dicarboxyphenylaminocarbonyl)-2-(2-fluorophenyl)ethylaminocarbonyl)-6-(1-adamantanemethylaminocarbonyl)-indole and regioisomer with substituents at positions 5 and 6 reversed [Example 27] |  | 5.6 |  | 8.5 | 9.2 | 
2 | O=C(O)c1cc(NC(=O)[C@H](Cc2ccccc2)NC(=O)c2cc3ccsc3cc2C(=O)NCC23CC4CC(CC(C4)C2)C3)cc(C(=O)O)c1 [Example 125, 5-(1S-(3,5-dicarboxyphenylaminocarbonyl)-2-phenylethylaminocarbonyl)-6-(1-adamantanemethylaminocarbonyl)-benzothiophene] |  | 5.7 |  | 8.9 | 9.4 | 
3 | C[C@@H](NC(=O)[C@H]1CCCN1C(=O)c1cc2ccccc2cc1C(=O)NCC12CC3CC(CC(C3)C1)C2)C(=O)O [Example 10, 2-(2R-(1R-carboxyethylaminocarbonyl)pyrrolidinocarbonyl)-3-(1-adamantanemethylaminocarbonyl)-naphthalene] | 1580 nM |  | 316 nM |  |  | 
4 | CN(CC12CC3CC(CC(C3)C1)C2)C(=O)c1cc2ccccc2cc1C(=O)N1CCC[C@@H]1C(=O)O [Example 9, 2-(2R-carboxypyrrolidino-carbonyl)-3-(1-adamantanemethyl(N-methyl)aminocarbonyl)-naphthalene] | 251 nM |  | 501 nM |  |  | 
5 | C[C@@H](NC(=O)[C@H]1CCCN1C(=O)c1cc2ccccc2cc1C(=O)N(C)CC12CC3CC(CC(C3)C1)C2)C(=O)O [Example 12, 2-(2R-(1R-carboxyethylaminocarbonyl)pyrrolidinocarbonyl)-3-(1-adamantanemethyl(N-methyl)aminocarbonyl)-naphthalene] | 1260 nM |  | 1260 nM |  |  | 
6 | 1/2-(1-adamantanemethylaminocarbonyl)-naphthoic acid Regioisomer 1 [Example 21] |  | 5.2 |  |  | 5.3 | 
7 | C[C@H](NC(=O)[C@H]1CCCN1C(=O)c1cc2ccccc2cc1C(=O)N(C)CC12CC3CC(CC(C3)C1)C2)C(=O)O [Example 13, 2-(2R-(1S-carboxyethylaminocarbonyl)pyrrolidinocarbonyl)-3-(1-adamantanemethyl(N-methyl)aminocarbonyl)-naphthalene] | 2000 nM |  | 398 nM |  |  | 
8 | O=C(O)c1cc(NC(=O)[C@H](Cc2ccc(I)cc2)NC(=O)c2cc3cc[nH]c3cc2C(=O)NCC23CC4CC(CC(C4)C2)C3)cc(C(=O)O)c1 [Example 32, 5-(1S-(3,5-dicarboxyphenylaminocarbonyl)-2-(4-iodophenyl)ethylaminocarbonyl)-6-(1-adamantanemethylaminocarbonyl)-indole] | 3.98 nM |  | 0.794 nM |  |  | 

Further lines, results first:

Row | Ki (CCKB receptor) | CCKA pKi (CCKA) | Kb (gastrin) | CCKB pKi (CCKB receptor) | Gastrin pKB (gastrin) | Ki (CCKA; read-out: CCKA pKi (converted)) | Compound
9 | 31.6 nM | 5.0 | 20 nM |  |  |  | CN(C(=O)c1cc2[nH]cnc2cc1C(=O)NCC12CC3CC(CC(C3)C1)C2)[C@@H](Cc1ccccc1)C(=O)Nc1cc(C(=O)O)cc(C(=O)O)c1 [Example 86, 5-(1S-(3,5-dicarboxyphenylaminocarbonyl)-2-30 phenylethyl-(N-methylamino)-carbonyl)-6-(1-adamantanemethylaminocarbonyl)-benzimidazole]
10 |  | 5.8 |  | 8.2 | 8.3 |  | 3-(1S-(3,5-dicarboxyphenylaminocarbonyl)-2-phenylethylaminocarbonyl)-2-(1-adamantanemethylaminocarbonyl)-5-nitronaphthalene and its regioisomer with groups at positions 2 and 3 reversed [Example 55]
11 | 10 nM |  | 25.1 nM |  |  |  | O=C(O)c1cc(NC(=O)[C@H](Cc2ccccc2)NC(=O)c2cc3c(cc2C(=O)NCC24CC5CC(CC(C5)C2)C4)[nH]c2ccccc23)cc(C(=O)O)c1 [Example 51, 3-(1S-(3,5-dicarboxyphenylaminocarbonyl)-2-phenylethylaminocarbonyl)-2-(1-adamantanemethylaminocarbonyl)-carbazole]
12 |  |  |  | 8.4 | 9.1 |  | O=C(O)c1cc(NC(=O)[C@H](Cc2ccccc2F)NC(=O)c2cc3[nH]cnc3cc2C(=O)NCC23CC4CC(CC(C4)C2)C3)cc(C(=O)O)c1 [Example 63, 5-(1S-(3,5-dicarboxyphenylaminocarbonyl)-2-(2-fluorophenyl)ethylaminocarbonyl)-6-(1-adamantanemethylaminocarbonyl)-benzimidazole]
13 | 15.8 nM |  | 79.4 nM |  |  |  | O=C(NS(=O)(=O)c1cccc(NC(=O)[C@H](Cc2ccccc2)NC(=O)c2cc3[nH]cnc3cc2C(=O)NCC23CC4CC(CC(C4)C2)C3)c1)c1ccccc1 [Example 139, 5-(1S-(3-benzoylaminosulphonylphenylaminocarbonyl)-2-phenylethylaminocarbonyl)-6-(1-adamantanemethylaminocarbonyl)-benzimidazole]
14 | 63.1 nM |  | 2 nM |  |  |  | COC(=O)c1cc(NC(=O)[C@H](Cc2ccccc2)NC(=O)c2cc3cc[nH]c3cc2C(=O)NCC23CC4CC(CC(C4)C2)C3)cc(C(=O)OC)c1 [Example 35, 5-(1S-(3,5-dimethoxycarbonylphenylaminocarbonyl)-2-phenylethylaminocarbonyl)-6-(1-adamantanemethylaminocarbonyl)-indole]
15 |  |  | 7.94 nM |  |  | 7940 nM | O=C(O)c1cc(NC(=O)[C@H](Cc2ccccc2C(F)(F)F)NC(=O)c2cc3[nH]cnc3cc2C(=O)NCC23CC4CC(CC(C4)C2)C3)cc(C(=O)O)c1 [Example 133, 5-(1S-(3,5-dicarboxyphenylaminocarbonyl)-2-(2-trifluoromethylphenyl)ethylaminocarbonyl)-6-(1-adamantanemethylaminocarbonyl)-benzimidazole]
16 | 20 nM |  | 15.8 nM |  |  |  | CC(=O)NS(=O)(=O)c1cccc(NC(=O)[C@H](Cc2ccccc2)NC(=O)c2cc3[nH]cnc3cc2C(=O)NCC23CC4CC(CC(C4)C2)C3)c1 [Example 137, 5-(1S-(3-acetylaminosulphonylphenylaminocarbonyl)-2-phenylethylaminocarbonyl)-6-(1-adamantanemethylaminocarbonyl)-benzimidazole]

— patent US5795907A, “Gastin and CCK receptor ligands” (James Black Foundation Limited, priority 1994, dated 1998)
